# Patent US8153631B2, “Triazole compounds and uses related thereto” (Amgen Inc., priority 2003, dated 2012)
# Target: T1, human HSD1 (recombinant HSD1) (Homo sapiens, UniProt P28845)
# T1 construct: made in house
# Experiment: In vitro HSD1 activity inhibitory action, SPA of cortisone to cortisol conversion
# Format: biochemical
# Conditions: recombinant human HSD1 0.1 μg/ml, 500 μM NADPH, 16 nM 3H cortisone, room temperature 90 min, read-out: hHSD1 IC50
# Protocol: In Vitro HSD1 (Hydroxysteroid Dehydrogenase 1) Activity Inhibitory Action
# The HSD1 inhibitory activity was examined by quantitative determination by an SPA (scintillation proximity assay) system of the suppressive action on the conversion from cortisone to cortisol using human HSD1 (hereinafter recombinant HSD1) expressed using a baculo-virus system as an enzyme source. For the reaction, a reagent was added to a 96 well plate (96 well Opti-plates™-96 (Packard)) to the following final concentration and a volume of 100 μl was reacted at room temperature for 90 min. The reaction solution used was 0.1 μg/ml recombinant HSD1, 500 μM NADPH, 16 nM ^3H cortisone (Amersham Biosciences, 1.78 Tbq/mol) dissolved in 0.1% BSA (Sigma)-containing PBS and the test drug was 2 μl of a compound solution (dissolved in DMSO). After 90 min, the reaction was stopped by adding PBS (40 μl, containing 0.1% BSA (Sigma)) containing 0.08 μg of anti-cortisol mouse monoclonal antibody (East Coast Biologics), 365 μg SPA PVT mouse antibody-binding beads (Amersham Biosciences) and 175 μM carbenoxolone (Sigma) to the reaction solution. After the completion of the reaction, the plate was incubated overnight at room temperature and the radioactivity was measured by Topcount (Packard). For control, the value (0% inhibition) of the well containing 2 μl of DMSO instead of the test drug was used, and for positive control, the value (100% inhibition) of the well containing carbenoxolone instead of the test drug at the final concentration of 50 μM was used. The inhibition (%) of the test drug was calculated by ((value of control−value of test drug)/(value of control−value of positive control))×100 (%). The IC50 value was analyzed using a computer-based curve fitting soft.
# T1 sequence (P28845 whole entry): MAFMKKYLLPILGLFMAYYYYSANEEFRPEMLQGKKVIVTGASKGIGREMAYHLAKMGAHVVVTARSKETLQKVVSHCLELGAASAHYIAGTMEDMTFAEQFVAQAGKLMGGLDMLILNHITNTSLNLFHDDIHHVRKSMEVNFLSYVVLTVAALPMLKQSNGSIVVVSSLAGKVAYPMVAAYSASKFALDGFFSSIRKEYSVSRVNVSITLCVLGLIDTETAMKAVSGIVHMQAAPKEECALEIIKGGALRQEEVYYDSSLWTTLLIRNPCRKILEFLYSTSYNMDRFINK
row,IC50,SMILES
1,< 10 nM,Cn1c(N2CCOCC2)nnc1C1(c2ccccc2)CC1 [Ex. 2-20]
2,< 10 nM,Cn1c(N2CCSCC2)nnc1C1(c2ccccc2)CC1 [Ex. 2-21]
3,10 to 1000 nM,Cn1c(N2CCS(=O)(=O)CC2)nnc1C1(c2ccccc2)CC1 [Ex. 2-22]
4,10 to 1000 nM,Cn1c(N2CC[S+]([O-])CC2)nnc1C1(c2ccccc2)CC1 [Ex. 2-23]
5,< 10 nM,Cn1c(N2CCc3ccccc3C2)nnc1C1(c2ccccc2)CC1 [Ex. 2-24]
6,< 10 nM,Cn1c(N2CCCc3ccccc32)nnc1C1(c2ccccc2)CC1 [Ex. 2-25]
7,10 to 1000 nM,Cn1c(N2CCNCC2)nnc1C1(c2ccccc2)CC1 [Ex. 2-26]
8,10 to 1000 nM,CC(=O)N1CCN(c2nnc(C3(c4ccccc4)CC3)n2C)CC1 [Ex. 2-27]
9,10 to 1000 nM,Cn1c(N2CCC(Oc3ncc(Cl)cc3Cl)CC2)nnc1C1(c2ccc(Cl)cc2)CC1 [Ex. 2-29]
10,< 10 nM,Cn1c(N2CCC(Oc3ccccc3Cl)CC2)nnc1C1(c2ccccc2)CC1 [Ex. 2-30]
11,< 10 nM,Cn1c(N2CCC(Oc3ncc(Cl)cc3Cl)CC2)nnc1C1(c2ccc(F)cc2)CC1 [Ex. 2-31]
12,< 10 nM,Cn1c(N2CCC(O)CC2)nnc1C1(c2ccccc2)CC1 [Ex. 2-32]
13,10 to 1000 nM,Cn1c(N2CCC(Nc3ncc(Cl)cc3Cl)CC2)nnc1C1(c2ccccc2)CC1 [Ex. 2-33]
14,10 to 1000 nM,Cn1c(N2CCC(Cc3ccccc3)CC2)nnc1C1(c2ccccc2)CC1 [Ex. 2-34]
15,< 10 nM,Cn1c(N2CCC(Oc3ccc(Cl)cc3)CC2)nnc1C1(c2ccccc2)CC1 [Ex. 2-35]
16,< 10 nM,Cn1c(N2CCC(Oc3ccc(F)cc3Cl)CC2)nnc1C1(c2ccccc2)CC1 [Ex. 2-36]
17,10 to 1000 nM,Cn1c(N2CCC(Oc3ncc(C(F)(F)F)cc3Cl)CC2)nnc1C1(c2ccccc2)CC1 [Ex. 2-37]
18,< 10 nM,Cn1c(N2CCC(Oc3ncccc3Cl)CC2)nnc1C1(c2ccccc2)CC1 [Ex. 2-38]
19,< 10 nM,Cn1c(N2CCC(Oc3ccc(Cl)cn3)CC2)nnc1C1(c2ccccc2)CC1 [Ex. 2-39]
20,10 to 1000 nM,Cn1c(N2CCC(O)(c3ccccc3)CC2)nnc1C1(c2ccccc2)CC1 [Ex. 2-40]
21,10 to 1000 nM,CN(c1ncc(Cl)cc1Cl)C1CCN(c2nnc(C3(c4ccccc4)CC3)n2C)CC1 [Ex. 2-41]
22,10 to 1000 nM,COC1(c2ccccc2)CCN(c2nnc(C3(c4ccccc4)CC3)n2C)CC1 [Ex. 2-42]
23,10 to 1000 nM,COC1CCN(c2nnc(C3(c4ccccc4)CC3)n2C)CC1 [Ex. 2-43]
24,10 to 1000 nM,Cn1c(N2CCC(Oc3ccc(C(=O)O)cc3)CC2)nnc1C1(c2ccccc2)CC1 [Ex. 2-44]
25,10 to 1000 nM,Cn1c(N2CCC(Oc3cccc(C(=O)O)c3)CC2)nnc1C1(c2ccccc2)CC1 [Ex. 2-45]

row,IC50,SMILES
1,10 to 1000 nM,Cn1c(N2CCC(Oc3ccccc3C(=O)O)CC2)nnc1C1(c2ccccc2)CC1 [Ex. 2-46]
2,10 to 1000 nM,COC(=O)c1ccc(OC2CCN(c3nnc(C4(c5ccccc5)CC4)n3C)CC2)cc1 [Ex. 2-47]
3,< 10 nM,Cn1c(N2CCC(=O)CC2)nnc1C1(c2ccccc2)CC1 [Ex. 2-48]
4,< 10 nM,COC(=O)c1cccc(OC2CCN(c3nnc(C4(c5ccccc5)CC4)n3C)CC2)c1 [Ex. 2-49]
5,10 to 1000 nM,COC(=O)c1ccccc1OC1CCN(c2nnc(C3(c4ccccc4)CC3)n2C)CC1 [Ex. 2-50]
6,< 10 nM,Cn1c(N2CCC(Oc3ccc(F)cc3)CC2)nnc1C1(c2ccccc2)CC1 [Ex. 2-51]
7,< 10 nM,Cn1c(N2CCC(Oc3ccc(C#N)cc3)CC2)nnc1C1(c2ccccc2)CC1 [Ex. 2-52]
8,< 10 nM,CC1CCN(c2nnc(C3(c4ccccc4)CC3)n2C)CC1 [Ex. 2-53]
9,10 to 1000 nM,Cn1c(N2CCC(Oc3cccc(CO)c3)CC2)nnc1C1(c2ccccc2)CC1 [Ex. 2-54]
10,10 to 1000 nM,Cn1c(N2CCC(Oc3cccc(C(N)=O)c3)CC2)nnc1C1(c2ccccc2)CC1 [Ex. 2-55]
11,10 to 1000 nM,CNC(=O)c1cccc(OC2CCN(c3nnc(C4(c5ccccc5)CC4)n3C)CC2)c1 [Ex. 2-56]
12,10 to 1000 nM,CN(C)C(=O)c1cccc(OC2CCN(c3nnc(C4(c5ccccc5)CC4)n3C)CC2)c1 [Ex. 2-57]
13,< 10 nM,Cn1c(N2CCC(C)(C)CC2)nnc1C1(c2ccccc2)CC1 [Ex. 2-58]
14,< 10 nM,Cn1c(N2CCC(C)(O)CC2)nnc1C1(c2ccccc2)CC1 [Ex. 2-59]
15,< 10 nM,Cn1c(N2CCC(C)(C)CC2)nnc1C1(c2ccc(F)cc2)CC1 [Ex. 2-60]
16,< 10 nM,Cn1c(N2CCC(CCO)CC2)nnc1C1(c2ccccc2)CC1 [Ex. 2-61]
17,10 to 1000 nM,COC(=O)c1cc(OC2CCN(c3nnc(C4(c5ccccc5)CC4)n3C)CC2)ccc1Cl [Ex. 2-62]
18,10 to 1000 nM,Cn1c(N2CCC(Oc3ccc(Cl)c(CO)c3)CC2)nnc1C1(c2ccccc2)CC1 [Ex. 2-63]
19,10 to 1000 nM,Cn1c(N2CCC(Oc3ccc(Cl)c(C(=O)O)c3)CC2)nnc1C1(c2ccccc2)CC1 [Ex. 2-64]
20,< 10 nM,CC(C)C1CCN(c2nnc(C3(c4ccccc4)CC3)n2C)CC1 [Ex. 2-65]
21,10 to 1000 nM,Cn1c(N2CCC(Oc3ccc(Cl)c(C(N)=O)c3)CC2)nnc1C1(c2ccccc2)CC1 [Ex. 2-66]
22,< 10 nM,COC(=O)C1(C)CCN(c2nnc(C3(c4ccccc4)CC3)n2C)CC1 [Ex. 2-67]
23,< 10 nM,Cn1c(N2CCC(C)(CO)CC2)nnc1C1(c2ccccc2)CC1 [Ex. 2-68]
24,10 to 1000 nM,Cn1c(N2CCC(C)(C(=O)O)CC2)nnc1C1(c2ccccc2)CC1 [Ex. 2-69]
25,< 10 nM,Cn1c(N2CCC(C)(C(N)=O)CC2)nnc1C1(c2ccccc2)CC1 [Ex. 2-70]

row,IC50,SMILES
1,10 to 1000 nM,CCCn1c(N2CCC(Oc3ncc(Cl)cc3Cl)CC2)nnc1C1(c2ccccc2)CC1 [Ex. 2-71]
2,10 to 1000 nM,COCCn1c(N2CCC(Oc3ncc(Cl)cc3Cl)CC2)nnc1C1(c2ccccc2)CC1 [Ex. 2-72]
3,< 10 nM,Cn1c(N2CCC(Oc3ccc(Cl)cc3Cl)CC2)nnc1C1(c2ccccc2)CC1 [Ex. 2-73]
4,< 10 nM,C=CCn1c(N2CCC(Oc3ncc(Cl)cc3Cl)CC2)nnc1C1(c2ccccc2)CC1 [Ex. 2-75]
5,< 10 nM,Clc1cnc(OC2CCN(c3nnc(C4(c5ccccc5)CC4)n3CC3CC3)CC2)c(Cl)c1 [Ex. 2-76]
6,10 to 1000 nM,CC(C)Cn1c(N2CCC(Oc3ncc(Cl)cc3Cl)CC2)nnc1C1(c2ccccc2)CC1 [Ex. 2-77]
7,< 10 nM,Clc1cnc(OC2CCN(c3nnc(C4(c5ccccc5)CC4)n3C3CC3)CC2)c(Cl)c1 [Ex. 2-78]
8,< 10 nM,CCn1c(N2CCC(Oc3ncc(Cl)cc3Cl)CC2)nnc1C1(c2ccccc2)CC1 [Ex. 2-79]
9,< 10 nM,CC(C)n1c(N2CCC(Oc3ncc(Cl)cc3Cl)CC2)nnc1C1(c2ccccc2)CC1 [Ex. 2-80]
10,< 10 nM,Cn1c(N2CCC(Oc3ncc(Cl)cc3Cl)CC2)nnc1C1(c2ccccc2)CCCC1 [Ex. 2-81]
11,10 to 1000 nM,Cc1ccc(C2(c3nnc(N4CCC(Oc5ncc(Cl)cc5Cl)CC4)n3C)CC2)cc1 [Ex. 2-82]
12,10 to 1000 nM,COc1ccc(C2(c3nnc(N4CCC(Oc5ncc(Cl)cc5Cl)CC4)n3C)CC2)cc1 [Ex. 2-83]
13,10 to 1000 nM,Cn1c(N2CCN(Cc3ccc(Cl)cc3Cl)CC2)nnc1C1(c2ccccc2)CC1 [Ex. 2-84]
14,< 10 nM,Cn1c(N2CCN(c3ccccc3Cl)CC2)nnc1C1(c2ccccc2)CC1 [Ex. 2-85]
15,10 to 1000 nM,Cn1c(N2CCC(Oc3c(Cl)cncc3Cl)CC2)nnc1C1(c2ccccc2)CC1 [Ex. 2-86]
16,10 to 1000 nM,Cn1c(N2CCC(Oc3ncc(Cl)cc3Cl)CC2)nnc1C1(c2ccc(Cl)cc2Cl)CC1 [Ex. 2-88]
17,10 to 1000 nM,Cn1c(N2CCN(c3ccc(F)cc3)CC2)nnc1C1(c2ccccc2)CC1 [Ex. 2-89]
18,10 to 1000 nM,Cn1c(N2CCN(c3ccc(Cl)cc3)CC2)nnc1C1(c2ccccc2)CC1 [Ex. 2-90]
19,< 10 nM,Cn1c(N2Cc3ccccc3C2)nnc1C1(c2ccccc2)CC1 [Ex. 2-91]
20,< 10 nM,CCN(Cc1ccccc1)c1nnc(C2(c3ccccc3)CC2)n1C [Ex. 2-92]
21,< 10 nM,CN(c1ccccc1)c1nnc(C2(c3ccccc3)CC2)n1C [Ex. 2-93]
22,< 10 nM,CN(c1ccc(Cl)cc1)c1nnc(C2(c3ccccc3)CC2)n1C [Ex. 2-94]
23,< 10 nM,CN(c1ccccn1)c1nnc(C2(c3ccccc3)CC2)n1C [Ex. 2-95]
24,< 10 nM,CN(c1ccccc1)c1nnc(C2(c3ccc(F)cc3)CC2)n1C [Ex. 2-96]
